Here are results for one compound from paper PMC7177216, “A Novel Highly Sensitive Method for Measuring Inflammatory Neural-Derived APC Activity in Glial Cell Lines, Mouse Brain and Human CSF” (International Journal of Molecular Sciences, 2020).

The target in one test is T1, bovine FXa (Bos taurus, UniProt P00743).
T1 construct: gene F10
The note with it: 1 µM inhibitor; 20 µM substrate; 1 mM CaCl2, 50 mM Tris-HCl pH 8.0; 37 °C.

In the next test the target is T2, Bovine thrombin (Bos taurus, UniProt P00735).
T2 construct: gene F2
The note with it: 1 µM inhibitor; 20 µM substrate; 1 mM CaCl2, 50 mM Tris-HCl pH 8.0; 37 °C.

Each structure is given as a SMILES string.

T1 sequence (P00743 41-180): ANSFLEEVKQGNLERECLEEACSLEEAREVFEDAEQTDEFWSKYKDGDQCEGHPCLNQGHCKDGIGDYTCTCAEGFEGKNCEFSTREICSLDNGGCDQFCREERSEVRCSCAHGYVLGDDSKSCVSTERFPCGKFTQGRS
T1 sequence (P00743 234-492): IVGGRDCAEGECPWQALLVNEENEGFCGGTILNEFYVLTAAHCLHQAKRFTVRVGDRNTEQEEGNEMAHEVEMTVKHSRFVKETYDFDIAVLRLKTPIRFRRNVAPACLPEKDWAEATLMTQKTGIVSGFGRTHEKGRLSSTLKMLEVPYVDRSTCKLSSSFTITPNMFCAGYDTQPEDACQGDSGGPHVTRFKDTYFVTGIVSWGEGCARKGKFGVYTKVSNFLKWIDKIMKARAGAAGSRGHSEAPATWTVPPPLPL

For `N=C(N)c1ccc(CC(NC(=O)CNS(=O)(=O)c2ccc3ccccc3c2)C(=O)N2CCCCC2)cc1` (centres unmarked) [NAPAP], the “inhibition of cleavage of Pyr-Pro-Arg-AMC (fluorescence)” value is “FXa activity was fully blocked by apixaban and partially blocked by NAPAP” at bovine FXa; “cleavage of the substrate by thrombin was fully blocked by NAPAP” on Bovine thrombin.
